# The NIST ThermoML archive (doi:10.1016/j.jct.2015.09.030)
# ± gives the expanded uncertainty stated by the source.
# What was measured:
# [1] = Liquid; for mass density: Vibrating tube method; for viscosity: Falling or rolling sphere viscometry
# [2] = xn = mol fraction of the nth substance listed; conditions: 100 kPa, Liquid, x2 = 0; for mass density: Vibrating tube method; for viscosity: Falling or rolling sphere viscometry
smiles,measurement,setting,value
CCCCCCCCCCCCCC[P+](CCCCCC)(CCCCCC)CCCCCC.[Cl-] [trihexyl(tetradecyl)phosphonium chloride],mass density,"[1]; 290.15 K, 101.33 kPa",897.5 ± 6.2 kg/m3
same,viscosity,"[1]; 293.15 K, 101.33 kPa",1996 ± 300 mPa·s
same,mass density,"[1]; 293.15 K, 101.33 kPa",895.8 ± 6.2 kg/m3
same,viscosity,"[1]; 295.15 K, 101.33 kPa",1996 ± 300 mPa·s
same,mass density,"[1]; 295.15 K, 101.33 kPa",894.6 ± 6.2 kg/m3
same,viscosity,"[1]; 298.15 K, 101.33 kPa",1683 ± 250 mPa·s
same,mass density,"[1]; 298.15 K, 101.33 kPa",892.8 ± 6.2 kg/m3
same,viscosity,"[1]; 303.15 K, 101.33 kPa",1174 ± 160 mPa·s
same,mass density,"[1]; 303.15 K, 101.33 kPa",889.8 ± 6.2 kg/m3
same,viscosity,"[1]; 308.15 K, 101.33 kPa",824.1 ± 110 mPa·s
same,mass density,"[1]; 308.15 K, 101.33 kPa",886.9 ± 6.2 kg/m3
same,viscosity,"[1]; 313.15 K, 101.33 kPa",593.7 ± 75 mPa·s
same,mass density,"[1]; 313.15 K, 101.33 kPa",883.9 ± 6.2 kg/m3
same,viscosity,"[1]; 318.15 K, 101.33 kPa",399.9 ± 48 mPa·s
same,mass density,"[1]; 318.15 K, 101.33 kPa",880.8 ± 6.2 kg/m3
same,viscosity,"[1]; 323.15 K, 101.33 kPa",325.9 ± 38 mPa·s
same,mass density,"[1]; 323.15 K, 101.33 kPa",878 ± 6.2 kg/m3
CO [methanol],viscosity,"[1]; 290.15 K, 100 kPa",0.6069 ± 0.061 mPa·s
same,mass density,"[1]; 290.15 K, 100 kPa",797.3 ± 6 kg/m3
same,viscosity,"[1]; 293.15 K, 100 kPa",0.5853 ± 0.059 mPa·s
same,mass density,"[1]; 293.15 K, 100 kPa",793.5 ± 6 kg/m3
same,viscosity,"[1]; 295.15 K, 100 kPa",0.5571 ± 0.056 mPa·s
same,mass density,"[1]; 295.15 K, 100 kPa",790.8 ± 6 kg/m3
same,viscosity,"[1]; 298.15 K, 100 kPa",0.5446 ± 0.055 mPa·s
same,mass density,"[1]; 298.15 K, 100 kPa",786.8 ± 6 kg/m3
same,viscosity,"[1]; 303.15 K, 100 kPa",0.5122 ± 0.051 mPa·s
same,mass density,"[1]; 303.15 K, 100 kPa",781.4 ± 6 kg/m3
same,viscosity,"[1]; 308.15 K, 100 kPa",0.4794 ± 0.048 mPa·s
same,mass density,"[1]; 308.15 K, 100 kPa",777.3 ± 6 kg/m3
same,viscosity,"[1]; 313.15 K, 100 kPa",0.4508 ± 0.045 mPa·s
same,mass density,"[1]; 313.15 K, 100 kPa",772.1 ± 6 kg/m3
same,viscosity,"[1]; 318.15 K, 100 kPa",0.4317 ± 0.043 mPa·s
same,mass density,"[1]; 318.15 K, 100 kPa",767.7 ± 6 kg/m3
same,viscosity,"[1]; 323.15 K, 100 kPa",0.4051 ± 0.041 mPa·s
same,mass density,"[1]; 323.15 K, 100 kPa",762.1 ± 6 kg/m3
CO [methanol] + CCCCCCCCCCCCCC[P+](CCCCCC)(CCCCCC)CCCCCC.[Cl-],mass density,[2]; 290.15 K,797.3 ± 6 kg/m3
same,mass density,[2]; 293.15 K,793.5 ± 6 kg/m3
same,viscosity,[2]; 295.15 K,0.557 ± 0.056 mPa·s
same,mass density,[2]; 295.15 K,790.8 ± 6 kg/m3
same,viscosity,[2]; 298.15 K,0.544 ± 0.055 mPa·s
same,mass density,[2]; 298.15 K,786.8 ± 6 kg/m3
same,viscosity,[2]; 303.15 K,0.512 ± 0.051 mPa·s
same,mass density,[2]; 303.15 K,781.4 ± 6 kg/m3
same,viscosity,[2]; 308.15 K,0.479 ± 0.048 mPa·s
same,mass density,[2]; 308.15 K,777.3 ± 6 kg/m3
same,viscosity,[2]; 313.15 K,0.451 ± 0.045 mPa·s
same,mass density,[2]; 313.15 K,772.1 ± 6 kg/m3
